Data published in ChEMBL document CHEMBL5380808, “Design, Synthesis, and Biological Activity of Marinacarboline Analogues as STAT3 Pathway Inhibitors for Docetaxel-Resistant Triple-Negative Breast Cancer” (J Med Chem, 2023).
Calls of active or inactive are those of the source. The calls are words filed in the database; no cut-off is given here.

Experiments:
MDA-MB-231 [1] = assay: Antiproliferative activity against human MDA-MB-231 cells assessed as reduction in cell viability incubated for 72 hrs by sulforhodamine B assay; type: functional, cell-based; conditions: MDA-MB-231, 72 h
[2] = target: T1, Signal transducer and activator of transcription 1-alpha/beta (Homo sapiens) (UniProt P42224); assay: Inhibition of STAT1 phosphorylation at S727 residue in docetaxel-resistant human MDA-MB-231-DTR cells assessed as decrease in phosphorylated STAT1 level at 2.5 to 10 uM incubated for 24 hrs by Western blot analysis; type: cell-based; conditions: dose 2.5-10 µM
T1 sequence (whole entry): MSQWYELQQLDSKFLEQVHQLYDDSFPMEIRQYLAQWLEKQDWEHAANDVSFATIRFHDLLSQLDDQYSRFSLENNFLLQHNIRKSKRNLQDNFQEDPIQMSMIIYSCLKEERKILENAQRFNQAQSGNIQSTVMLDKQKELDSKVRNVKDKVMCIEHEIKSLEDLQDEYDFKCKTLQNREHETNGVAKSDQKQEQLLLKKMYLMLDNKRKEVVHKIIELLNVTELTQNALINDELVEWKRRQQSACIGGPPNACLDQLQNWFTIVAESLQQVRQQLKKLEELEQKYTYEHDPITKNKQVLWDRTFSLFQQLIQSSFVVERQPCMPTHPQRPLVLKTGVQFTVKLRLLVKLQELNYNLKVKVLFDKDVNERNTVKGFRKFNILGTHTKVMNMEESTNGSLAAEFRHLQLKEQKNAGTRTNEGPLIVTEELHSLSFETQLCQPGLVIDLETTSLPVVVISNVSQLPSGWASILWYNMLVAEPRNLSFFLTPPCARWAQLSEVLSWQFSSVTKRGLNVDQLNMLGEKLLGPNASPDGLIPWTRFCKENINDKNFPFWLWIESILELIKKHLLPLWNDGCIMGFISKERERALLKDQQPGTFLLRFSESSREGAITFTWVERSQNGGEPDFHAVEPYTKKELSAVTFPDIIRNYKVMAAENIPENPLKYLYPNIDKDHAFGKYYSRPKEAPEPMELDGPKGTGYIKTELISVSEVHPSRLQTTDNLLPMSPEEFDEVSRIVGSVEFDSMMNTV

[3] = Synergistic antiproliferative activity against docetaxel-resistant human MDA-MB-231-DTR cells assessed as combination index at 2 uM incubated for 72 hrs in presence of 2 uM of docetaxel by Chou-Talalay method; type: functional
[4] = Synergistic antiproliferative activity against docetaxel-resistant human MDA-MB-231-DTR cells assessed as combination index at 4 uM incubated for 72 hrs in presence of 1 uM of docetaxel by Chou-Talalay method; type: functional
[5] = Synergistic antiproliferative activity against docetaxel-resistant human MDA-MB-231-DTR cells assessed as combination index at 8 uM incubated for 72 hrs in presence of 2 uM of docetaxel by Chou-Talalay method; type: functional
[6] = Induction of apoptosis in docetaxel-resistant human MDA-MB-231-DTR cells assessed as increase in total cell death at 2.5 uM incubated for 48 hrs by Annexin V-FITC and PI staining based flow cytometry; type: functional
[7] = Induction of cell cycle arrest in docetaxel-resistant human MDA-MB-231-DTR cells assessed as accumulation at S phase at 10 uM incubated for 36 hrs by PI staining based flow cytometry analysis (reference value: 11.57%); type: functional
[8] = Induction of cell cycle arrest in docetaxel-resistant human MDA-MB-231-DTR cells assessed as accumulation at G2/M phase at 2.5 uM incubated for 36 hrs by PI staining based flow cytometry analysis (reference value: 13.16%); type: functional
[9] = Induction of cell cycle arrest in docetaxel-resistant human MDA-MB-231-DTR cells assessed as accumulation at G2/M phase at 5 uM incubated for 36 hrs by PI staining based flow cytometry analysis (reference value: 13.16%); type: functional
MDA-MB-231 [10] = assay: Induction of cell cycle arrest at G2/M phase in docetaxel-resistant human MDA-MB-231-DTR cells assessed as upregulation of Chk2 phosphorylation at T68 at 2.5 to 10 uM incubated for 36 hrs by Western blot analysis; type: functional, cell-based; conditions: dose 2.5-10 µM
[11] = Induction of cell cycle arrest in docetaxel-resistant human MDA-MB-231-DTR cells assessed as accumulation at subG1 phase at 5 uM incubated for 12 hrs by PI staining based flow cytometry analysis (reference value: 0.41%); type: functional
[12] = Induction of cell cycle arrest in docetaxel-resistant human MDA-MB-231-DTR cells assessed as accumulation at G0/G1 phase at 5 uM incubated for 12 hrs by PI staining based flow cytometry analysis (reference value: 75.49%); type: functional
[13] = Induction of cell cycle arrest in docetaxel-resistant human MDA-MB-231-DTR cells assessed as accumulation at G0/G1 phase at 5 uM incubated for 36 hrs by PI staining based flow cytometry analysis (reference value: 75.49%); type: functional
[14] = Induction of cell cycle arrest in docetaxel-resistant human MDA-MB-231-DTR cells assessed as accumulation at S phase at 5 uM incubated for 12 hrs by PI staining based flow cytometry analysis (reference value: 10.56%); type: functional
[15] = Induction of cell cycle arrest in docetaxel-resistant human MDA-MB-231-DTR cells assessed as accumulation at G2/M phase at 5 uM incubated for 36 hrs by PI staining based flow cytometry analysis (reference value: 13.54%); type: functional
MDA-MB-231 [16] = assay: Induction of apoptosis in docetaxel-resistant human MDA-MB-231-DTR cells assessed as upregulation of cleaved-PARP expression level at 2.5 to 10 uM incubated for 48 hrs by Western blot analysis; type: functional, cell-based; conditions: dose 2.5-10 µM
MDA-MB-231 [17] = assay: Induction of apoptosis in docetaxel-resistant human MDA-MB-231-DTR cells assessed as upregulation of cleaved-caspase-9 expression level at 2.5 to 10 uM incubated for 48 hrs by Western blot analysis; type: functional, cell-based; conditions: dose 2.5-10 µM
MDA-MB-231 [18] = assay: Inhibition of cell invasion in docetaxel-resistant human MDA-MB-231-DTR cells at 3 to 6 uM incubated for 24 hrs by transwell invasion assay; type: functional, cell-based; conditions: dose 3-6 µM
MDA-MB-231 [19] = assay: Inhibition of cell migration in docetaxel-resistant human MDA-MB-231-DTR cells assessed as downregulation of Snail expression level at 3 to 6 uM incubated for 24 hrs by Western blot analysis; type: functional, cell-based; conditions: dose 3-6 µM
[20] = Toxicity in BALB/c mouse xenografted with docetaxel-resistant human MDA-MB-231-DTR cells assessed as body weight change at 5 mg/kg, ip daily for 12 days; type: organism-based; conditions: in vivo, 288 h, time 12 day
MDA-MB-231 [21] = assay: Antitumor activity against docetaxel-resistant human MDA-MB-231-DTR cells xenografted in BALB/c mouse assessed as upregulation of E-cadherin level in tumor tissue at 10 mg/kg, ip daily for 12 days by Immunohistochemical analysis; type: functional, organism-based; conditions: time 12.0 day

In the case of `O=C(NCCc1c[nH]c2ccccc12)c1cc2c([nH]c3ccccc32)c(C(=O)c2ccc(Br)cc2)n1`, the IC50 (MDA-MB-231 [1]) is reported as 3.11 µM, the inhibition [2] is reported as “inactive” and the CI [3] is reported as 0.23. It also gave a CI [4] of 0.38, a CI [5] of 0.45 and an Activity [6] of 5.55%. It also gave an Activity [7] of 18.42%, an Activity [8] of 25.18% and an Activity [9] of 24.58%. For the same molecule, the Activity (MDA-MB-231 [10]) was “Active”, the Activity [11] was 0.82% and the Activity [12] was 88.84%. It also gave an Activity [13] of 55.56%, an Activity [14] of 12.14% and an Activity [15] of 26.59%. The Activity (MDA-MB-231 [16]) was “Active”, the Activity (MDA-MB-231 [17]) was “Active” and the inhibition (MDA-MB-231 [18]) was “Dose-Dependent Effect”. The inhibition (MDA-MB-231 [19]) was “Active”, the Activity [20] was “Non-Toxic” and the Activity (MDA-MB-231 [21]) was “Active”.
